Reference: patent publication US10959984B2, “Methods for treating cancer with RORγ inhibitors” (THE REGENTS OF THE UNIVERSITY OF CALIFORNIA, priority 2015, dated 2021)
“Also recorded” adds a separate entry of the source.

Key:
AR = test: ARE reporter gene assay (5xARE-tk-luc) in 22Rv1 cells; format: cell-based, human
Experimental: Transient transfection and reporter gene assays were performed as previously described^49 with the following modifications. ARE reporter gene assays were performed by transfecting 22Rv1 cells with 5×ARE-tk-luc, pcDNA3.1-hAR and pCMV-β-gal for normalization. For transfection with constructs omitted for specific gene expression, corresponding empty vectors were used to ensure equal amount of total DNA used. Briefly, 22Rv1 cells seeded in 96-well plates in hormone-deprived medium supplemented with 10% cds-FBS (Hyclone) were transfected with lipofectamine 2000 (Life technology, Carlsbad, Calif., USA) and the indicated plasmid DNA. Cells were then treated at 12 hours after transfection with 3 nm R1881, indicated concentrations of RORγ antagonists or ENZ for another 24 hours before harvested for β-gal and luciferase assays. For RORE reporter gene assays, 4×AR-RORE-tk-luc was constructed by inserting four copies of the newly identified AR-RORE TTCTGGGTCA (SEQ ID NO: 1) into tk-luciferase reporter vector. AR-RORE mutant form (AR-RORE mut) contains sequences mutated from TTCTGGGTCA (SEQ ID NO: 1) to TTCTGAACGA (SEQ ID NO: 2). […] The luciferase and β-galactosidase were then analyzed with a Luciferase Assay Substrate (Promega) and Luminescent β-galactosidase Detection Kit II (Clontech). […]

AR-positive PCa cells = test: Prostate cancer cell growth and survival (cell viability / cell growth); format: cell-based, human; details: for growth-inhibitory effect in prostate cancer cells: cell viability, 4 d (FIGS. 7B, 7C); for inhibition of AR-positive PCa cell growth and survival: different cell line models
Experimental: (§1) For cell viability, cells were seeded in 96-well plates at 1500-2500 cells per well (optimum density for growth) in a total volume of 100 μl media. Serially diluted compounds in […] of media were added to the cells 12 hours later. After 4 days of incubation, Cell-Titer GLO reagents (Promega) were added and luminescence was measured on GLOMAX microplate luminometer (Promega), according to the manufacturer's instructions. All experimental points were set up as sextuplicate as biological replication and the entire experiments were repeated three times. The data are presented as percentage of viable cells with vehicle treated cells set as 100. The estimated in vitro IC50 values were calculated using GraphPad Prism 6 software.
(§2) For apoptosis, Terminal deoxynucleotidyl transferase-mediated dUTP nick end labeling (TUNEL) was performed by using in situ cell death detection kit (Roche) as previously described^56. The results are expressed as a percentage of apoptotic cell number/total cell number. Caspase-3/7 activity was measured using a luminescent caspase-Glo 3/7 assay kit (Promega Corporation, Madison, USA) following the manufacturer's instructions. For cell growth, cells were seeded in 6-well plates at 2×10^5 per well and treated as indicated. Total viable cell numbers were counted using a Coulter cell counter. For colony formation, 800 cells were seeded in a well of 6-well plates and cultured for 14 days with the medium changed every 3 days. When the cell clone grew visible, the medium was removed and the cells were fixed with […] formalin for 10 minutes. Then the plates were washed with PBS for two times and the cell colonies were stained with 0.2% crystal violet (in 10% formalin) for 15 minutes. The numbers of cell colonies were counted after washed 5 times by PBS. The above assays were performed in triplicates and the entire experiments were repeated three times.

MCF-7-TamR cell line = test: Growth of tamoxifen-resistant breast cancer cells; format: cell-based, human
Experimental: (§3) Using a CellTiter-GLO assay, the viability of cells of different cancer types was measured after treatment with different concentrations of RORγ small molecule inhibitors for 4 days.

AR-negative PCa cells = test: Prostate cancer cell growth and survival, AR-negative cells; format: cell-based, human
Experimental: as §1, §2

22Rv1 xenografts = test: 22Rv1 xenograft tumor growth; format: in vivo, mice
Experimental: Four-week-old male SCID C.B17 mice (for C4-2B and VCaP) or BALB/c nu/nu athymic mice (for 22Rv11 and PC-3) were purchased from Harlan Inc. For establishing tumors, 2×10^6 cells were suspended in total of 100 μL PBS/Matrigel (1:1) and implanted subcutaneously into the dorsal flank on both sides of the mice. Animal group size of six or more was estimated to have a high statistic power, based on power calculation (http://www.biomath.info/power/) and previous studies involving the same xenograft models^34,68. When the tumor volume was approximately 80 mm^3, the mice were randomized and then treated intraperitoneally (i.p.) with 100 μl of either vehicle or RORγ antagonists SR2211, XY011/8k (in a formulation of 15% Cremophor EL, Calbiochem, 82.5% PBS, and 2.5% DMSO) for five times per week. Tumor growth was monitored by calipers with volume calculated using the equation: (π/6 (length×width2)). Body weight during the course of the study was also monitored. At the end of the studies mice were killed and tumors were dissected and weighed. Additionally, prostate, seminal vesicle, testis, kidney, heart, lung, liver, epididymal fat pad and spleen were harvested and weighed. To assess the effect of combining RORγ antagonists and ENZ on the growth of castrated-resistant VCaP xenografts (CRPC-VCaP), first, SCID C.B17 mice were injected with VCaP cells as above to establish the tumors. Then, mice bearing tumors of approximately 180 mm^3 were surgically castrated. They were then observed for tumor regression. Once tumors grew back to the pre-castration size, mice were randomized and treated with vehicle, 5 mg kg^−1 SR2211, 10 mg […] ENZ or a combination of 5 mg kg^−1 SR2211 and 10 mg kg^−1 ENZ. ENZ was given by oral gavage as previously described^68 and SR2211 was administered i.p as above. Mice were excluded from the study if bearing no tumor or tumor with size twice larger or smaller than the mean, at the time of randomization.

AR and AR-V7 = test: AR and AR variant expression (immunoblotting, qRT-PCR); format: cell-based, human
Experimental: Total RNA was isolated from cells in 6-well or 10-cm plates or from xenograft tumors, and the cDNA was prepared, amplified and measured in the presence of SYBR as previously^49. Briefly, the fluorescent values were collected and a melting curve analysis was performed. Fold difference was calculated as described previously^49. The experiments were performed at least three times with data presented as mean values±s.d. Cell lysates were analyzed by immunoblotting with antibodies specifically recognizing RORγ, AR, AR-V7 and the indicated proteins. The PCR primers and all the antibodies used in this study are described in the Tables 3 and 4.

breast cancer cells = test: CellTiter-GLO viability, breast cancer cells; format: cell-based, human
Experimental: as §1, §3

[1] = system: OVCAR420, T24, ECC1, HepG2, Hep3B, T98G, SUDHL4, SUDHL6, HCT116 and docetaxel-resistant C4-2B cells; test: CellTiter-GLO viability, cells of other cancer types; format: cell-based, human; details: ovarian OVCAR420, bladder T24, endometrial ECC1, liver HepG2 and Hep3B, glioblastoma T98G, DLBCL SUDHL4 and SUDHL6, colon HCT116, docetaxel-resistant C4-2B; 4 days
Experimental: as §1, §3

C[C@]1(O)CC[C@H]2[C@@H]3CCC4=CC(=O)CCC4=C3C=C[C@@]21C [R1881]
response of multimerized ARE-driven reporter (AR): activated

SR3335
growth-inhibitory effect in prostate cancer cells (AR-positive PCa cells): did not display any significant effect
inhibition of AR-positive PCa cell growth and survival (AR-positive PCa cells): did not show any significant growth inhibition

CC/C(=C(\c1ccccc1)c1ccc(OCCN(C)C)cc1)c1ccccc1 [tamoxifen]
growth inhibitory effect of tamoxifen alone (MCF-7-TamR cell line; MCF-7-TamR, 1 μM of 4(OH)-tamoxifen): did not show any inhibitory effect
growth inhibitory effect of tamoxifen in combination with RORγ inhibitors (MCF-7-TamR cell line; tamoxifen-resistant breast cancer cells, combined with SR2211 or GSK805): synergistic growth inhibitory effect

CCN1C(=O)c2cccc3c(S(=O)(=O)Nc4ccc5ccncc5c4)ccc1c23 [6f, 1-Ethyl-N-(isoquinolin-7′-yl)-2-oxo-1,2-dihydrobenzo[cd]indole-6-sulfonamide]
inhibition of cell growth and survival in AR-negative cells (AR-negative PCa cells): not in the AR-negative cells
inhibition of AR-positive PCa cell growth and survival (AR-positive PCa cells): potent inhibition of AR-positive PCa cell growth and survival

CCN1C(=O)c2cccc3c(S(=O)(=O)Nc4ccc(OC)c(OC)c4)ccc1c23 [XY011, N-(3′,4′-dimethoxyphenyl)-1-ethyl-2-oxo-1,2-dihydrobenzo[cd]indole-6-sulfonamide]
tumor growth inhibition (22Rv1 xenografts; XY011 20 mg/kg, i.p., 5 times a week (FIG. 23B)): Strong tumor growth inhibition
growth of xenograft tumors (22Rv1 xenografts; nude mice, SR2211 5 mg/kg i.p., 8k/E11 10 and 20 mg/kg i.p., five times per week (FIG. 3A)): strongly inhibited growth of xenograft tumors
inhibition of cell growth and survival in AR-negative cells (AR-negative PCa cells): not in the AR-negative cells
expression of AR and AR-V7 (AR and AR-V7; C4-2B and VCaP cells, 72 h): potently inhibited the expression of AR and AR-V7 in a dose-dependent manner
inhibition of AR-positive PCa cell growth and survival (AR-positive PCa cells): potent inhibition of AR-positive PCa cell growth and survival

C[C@]12CC[C@H](O)C[C@H]1CC[C@@H]1[C@@H]2CC[C@]2(C)[C@@H](c3ccc(=O)oc3)CC[C@]12O [bufalin]
AR expression (AR and AR-V7; C4-2B cells treated with bufalin): dose-dependent inhibition of AR expression

CC(=O)N1CCN(Cc2ccc(-c3ccc(C(O)(C(F)(F)F)C(F)(F)F)cc3)cc2)CC1.Cl [SR1555, 1-(4-((4′-(1,1,1,3,3,3-hexafluoro-2-hydroxypropan-2-yl)-[1,1′-biphenyl]-4-yl)methyl)piperazin-1-yl)ethanone, monohydrochloride]
inhibition of cell growth and survival in AR-negative cells (AR-negative PCa cells): not in the AR-negative cells
growth-inhibitory effect in prostate cancer cells (AR-positive PCa cells): significant inhibitory effects with slightly lower potencies
inhibition of AR-positive PCa cell growth and survival (AR-positive PCa cells): potent inhibition of AR-positive PCa cell growth and survival

CCN1C(=O)c2cccc3c(S(=O)(=O)Nc4ccc(/N=N/c5ccccc5)cc4)ccc1c23 [7k, (E)-1-ethyl-2-oxo-N-(4′-(phenyldiazenyl)phenyl)-1,2-dihydrobenzo[cd]indole-6-sulfonamide]
inhibition of cell growth and survival in AR-negative cells (AR-negative PCa cells): not in the AR-negative cells
inhibition of AR-positive PCa cell growth and survival (AR-positive PCa cells): potent inhibition of AR-positive PCa cell growth and survival

CC(=O)N1CCN(c2ccc(CN3[C@@H](C)CC[C@H](c4ccccc4)S3(=O)=O)c(F)c2)CC1 [GNE3500]
growth and survival of different breast cancer cells (breast cancer cells; HER2-positive HCC1954, TNBC MDA-MB468 and MDA-MB231, radiation-resistant MCF-7-C6): significant inhibition

NS(=O)(=O)c1ccc(CC(=O)Nc2cc(Cl)c(-c3ccccc3OC(F)(F)F)c(Cl)c2)cc1 [GSK9b, N-(2,6-dichloro-2′-trifluoromethoxy)-[1,1′-biphenyl]-4-yl-2-(4-sulfamoylphenyl)acetamide]
growth and survival of breast cancer cells (breast cancer cells; cells having different major molecular features, 4 days): strongly inhibited the growth and survival of breast cancer cells; also recorded: slightly less effective than GSK805
growth and survival of cancer cells of other types [1]: significant inhibition of the growth and survival
